Reference: patent US9045415B2, “Targeting of EWS-FLI1 as anti-tumor therapy” (Georgetown University, priority 2006, dated 2015)

Experiments:
ESFT cell line CHP-100 = assay: CHP-100 tumors in nude mice treated with YK-4-275; format: in vivo; conditions: treated for 4 days when tumors palpable
Description: Nude mice were inoculated with ESFT cell line CHP-100. When tumors were palpable, animals were treated with YK-4-275 (NSC635437) for 4 days. Curves show tumor volumes over time.

[1] = system: non-transformed HEK293 cells; assay: Cell growth, HEK293; format: cell-based; conditions: TC32 vs HEK293
Description: (§1) FIG. 33 provides data showing YK-4-279 is potent and specific inhibitor of ESFT. […] Cell number was measured by MTT or WST reduction after seven days in culture. […] FIG. 33D cell lines expressing EWS-FLI1 compared to non-EWS-FLI1 malignant cell lines following 3 days in culture to establish the IC50 using WST assay. […] Graph plots level of fluorescence in treated divided by untreated lysate. […] Scale bar equals 200 μm.

EWS-FLI1 = assay: Fluorescence polarization assay, FITC-E9R displacement; format: binding; conditions: 30 μM YK-4-279; 3.2 μM FITC-E9R
Description: The assay was performed in 20 mM Tris, 500 mM NaCl, 0.67 M imidazole, pH 7.4. The fluorescence polarization was analyzed in a QuantaMaster fluorimeter (Photon Technology International, Ford, West Sussex, UK) equipped with polymer sheet polarizers at an excitation wavelength of 495 nm and emission wavelength of 517 nm. […] (3.2 μM, as determined from saturated binding curve) with the same buffer and instrumental settings as described above.

panel of ESFT cell lines = assay: Cell growth (WST), panel of ESFT cell lines; format: cell-based; conditions: 72 h, 3 days
Description: as §1

[2] = biological target: T1, EWS-FLI1 and RHA in TC32 cells (Homo sapiens, UniProt Q01543+Q01844); assay: Co-precipitation of RHA with EWS-FLI1 from treated TC32 cells; format: cell-based
T1 construct: endogenous in cells; host or cells: TC32 (ESFT cell line)
T1 sequence (Q01844+Q01543 fused): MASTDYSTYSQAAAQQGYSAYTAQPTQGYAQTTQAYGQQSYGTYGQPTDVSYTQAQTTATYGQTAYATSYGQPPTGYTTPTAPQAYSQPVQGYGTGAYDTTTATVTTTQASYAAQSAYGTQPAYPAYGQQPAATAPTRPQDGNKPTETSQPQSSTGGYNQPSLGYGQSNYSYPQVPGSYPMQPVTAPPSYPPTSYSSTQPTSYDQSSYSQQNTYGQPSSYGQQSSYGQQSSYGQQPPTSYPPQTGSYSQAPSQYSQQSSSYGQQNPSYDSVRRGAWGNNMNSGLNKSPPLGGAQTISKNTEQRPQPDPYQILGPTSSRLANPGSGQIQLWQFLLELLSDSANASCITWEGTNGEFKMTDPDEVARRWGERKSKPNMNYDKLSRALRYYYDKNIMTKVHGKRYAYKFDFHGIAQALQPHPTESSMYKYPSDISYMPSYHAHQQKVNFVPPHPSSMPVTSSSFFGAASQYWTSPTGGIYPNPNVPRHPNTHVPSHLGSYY
Description: (§2) FIG. 32 provides data showing YK-4-279 reduces EWS-FLI1 functional activity. FIG. 32A concerns TC32 cells that were treated with YK-4-279 and resolved protein lysates and that were immunoblotted for co-precipitated RHA (top), EWS-FLI1 (middle), or total RHA (bottom).
Protein lysates and immunoprecipitations were performed as previously published (Uren et al (2005)). Recombinant GST-RHA (647-1075) was prepared from crude bacterial extracts without further purification.

[3] = system: non-transformed keratinocytes (HFK) and ectocervical cells (HEC); assay: Viability (WST), non-transformed HFK and HEC; format: cell-based; conditions: Keratinocyte, 72 h; treated for 3 days
Description: FIG. 39A provides data showing HEC and HFK, non-transformed endocervical cells and keritinocytes, treated with YK-4-279 for 72 hours and assayed for viability using WST reduction. FIG. 39B provides data showing TC71 cells treated for 16 hours with YK-4-279 or doxorubicin. Lysates were assayed for cleavage of AMC-DEVD by induced caspase-3 and fluorescence was measured. FIG. 39C provides data showing that RHA reduced TC71 cells were more resistant to YK-4-279 treatment than wild-type cells. FIG. 39D provides data showing an shRNA tet-inducible expression vector stably transfected into A673 (ESFT) cells to reduce EWS-FLI1 levels. FIG. 39E provides data showing that EWS-FLI1 reduced A673 cells were more resistant to YK-4-279 treatment than wild-type cells.

[4] = system: ESFT cell lines (TC32, A4573, TC71, and ES925); assay: Caspase-3 activity (DEVD-AMC cleavage), ESFT cell lines; format: cell-based; conditions: 24 hours
Description: (§3) Cells were treated for 24 hours with 10 μM YK-4-279. The Caspase-3 substrate DEVD-AMC was incubated with equal amounts of protein lysate and fluorescence from cleaved substrate measured in a fluorimeter. TC32 and non-transformed cells HEK-293, HFK, and HEC were treated for 6 hours with high dose (50 μM) YK-4-279. DAPI stained cells were photographed at 600× using inverted fluorescence microscope.

[5] = system: cell lines that lack EWSFLI1; assay: Cell growth (WST), cell lines that lack EWS-FLI1; format: cell-based; conditions: 72 h, 3 days
Description: as §1

TC32 = assay: Nuclear fragmentation (DAPI), TC32; format: cell-based; conditions: 50 μM, 6 hours
Description: as §3

NFκB responsive promoter = assay: NFκB responsive reporter in COS7 cells activated with PMA; format: cell-based; conditions: after PMA
Description: FIG. 38A provides data showing COST cells transfected with an NFκB reporter construct followed by stimulation with PMA. Cells were treated with YK-4-279 following PMA treatment. Cell lysates were analyzed for NFκB induced luciferase activity as standardized to LTR activated renilla luciferase.

HEK293, HFK, and HEC = assay: Nuclear fragmentation (DAPI), non-transformed cells; format: cell-based; conditions: 50 μM, 6 hours
Description: as §3

[6] = system: cyclin D levels in four non-EWS-FLI1 containing cell lines; assay: Cyclin D immunoblot, non-EWS-FLI1 containing cell lines; format: cell-based; conditions: 10 μM overnight
[7] = system: EWS-FLI1 responsive NROB1 promoter; assay: Luciferase reporter assay of EWS-FLI1 responsive NROB1 promoter in COS7 cells; format: cell-based; conditions: 3 and 10 μM, 18 hours
Description: as §2
EGFP-E9R fusion constructs prepared as published (Frangioni, J. V. & Neel, B. G. Use of a general purpose mammalian expression vector for studying intracellular protein targeting: identification of critical residues in the nuclear lamin A/C nuclear localization signal. J Cell Sci 105 (Pt 2), 481-488 (1993)). We transiently transfect the NR0B131 luciferase reporter and full-length EWS-FLI1 into COS-7 cells with Fugene-6 (Roche) and luciferase assay performed per manufacturer's protocol (Dual Luciferase Kit, Promega). Six hours following transfection, cells were treated with either 3 or 10 μM YK-4-279. Cell lysates luciferase activity levels were standardized to renilla activity from a non-affected promoter and plotted as relative luciferase activity (RLA).

[8] = system: non-EWS-FLI1 cancer cell lines and non-transformed cell lines (HFK, HEC, HEK293); assay: Caspase-3 activity, non-EWS-FLI1 cancer and non-transformed cell lines; format: cell-based; conditions: 10 μM, 24 hours
Description: as §1, §3

GUES1 = assay: Cell growth, primary ESFT line GUES1; format: cell-based; conditions: Homo sapiens, 72 h; 3 days; read-out: anti-proliferative IC50
Description: as §1

## O=C(CC1(O)C(=O)Nc2c(Cl)ccc(Cl)c21)c1ccc(Cl)cc1 (centres unmarked) [NSC635437, 4,7-Dichloro-3-[2-(4-chlorophenyl)-2-oxoethyl]-3-hydroxyl-1,3-dihydro-2H-indol-2-one]
ESFT cell line CHP-100
  tumor growth: inhibition of tumor growth

## COc1ccc(C(=O)CC2(O)C(=O)Nc3c(Cl)ccc(Cl)c32)cc1 (centres unmarked) [YK-4-279, 4,7-Dichloro-3-hydroxy-3-[2-(4-methoxyphenyl)-2-oxoethyl]-1,3-dihydro-2H-indol-2-one]
[1]
  difference in IC50, ESFT cells compared to HEK293: 10 fold
EWS-FLI1
  displacement of FITC-E9R from EWS-FLI1: complete displacement
Panel of ESFT cell lines
  IC50: 0.5 to 2 µM
[2]
  EWS-FLI1 and RHA protein levels: did not directly affect EWSFLI1 nor RHA levels
[2]; by 10 μM
  EWS-FLI1/RHA association in treated ESFT cells: dissociation of EWS-FLI1 from RHA
[3]
  IC50: > 30 µM
[4]; TC32 cells, dose range
  caspase-3 activity: rose in a dose dependent fashion
[4]; four ESFT cell lines, 10 μM
  caspase-3 activation: induced caspase-3 activity
[5]
  IC50: > 25 µM
TC32
  apoptosis (nuclear fragmentation): significant apoptosis
NFκB responsive promoter
  NFκB responsive promoter activity: did not affect the NFκB responsive promoter
HEK293, HFK, and HEC
  cell death (nuclear fragmentation): no cell death
[6]
  cyclin D levels: did not affect cyclin D levels
[7]
  NROB1 promoter activity: dose-dependent decrease in promoter activity
[8]
  apoptosis (caspase-3 activation): none
GUES1
  IC50: 8 µM
